{"source": "BindingDB's records for doi:10.1016/s0960-894x(98)00290-x", "about": "(3-Dimensional Pharmaceuticals, 1999)", "key": {"[1]": {"experiment": "Compound was tested in vitro for its ability to inhibit serine protease chymotrypsin using suc-Ala-Ala-Pro-Phe-p-nitroanilide as substrate"}, "[2]": {"experiment": "Compound was tested in vitro for its ability to inhibit serine protease trypsin using benzoyl-Phe-Val-Arg-p-nitroanilide as substrate"}}, "note": "pKi: −log10 of the molar value.", "data": [{"molecule": "Cc1cc(OCCCNC(=N)N)cc(OS(=O)(=O)c2ccccc2Cl)c1", "note": "[2-Chloro-benzenesulfonic acid 3-(3-guanidino-propoxy)-5-methyl-phenyl ester]", "values": [{"measurement": "pKi", "setting": "[1]", "result": "< 3.70"}, {"measurement": "pKi", "setting": "[2]", "result": 4.64}]}]}
